# Results published in patent US11981686B2, “Urea compound having substituent” (DAIICHI SANKYO COMPANY, LIMITED, priority 2019, dated 2024).
# Target: SIRT6 enzyme (Homo sapiens, UniProt Q8N6T7)
# Assay: Measurement of deacetylation activity (SIRT6, AlphaLISA, H3K9(Ac) peptide)
# Assay type: biochemical
# Settings: SIRT6 25 ng/mL, H3K9(Ac) biotin peptide 2 nM, NAD 10 μM, room temperature 30 minutes, duplicate
# Protocol: The reaction was performed in duplicate using a white 384-well plate (3824, Corning or 6008350, PerkinElmer) at a final reaction liquid volume of 20.1 μL. As a control for calculating the enzyme activity, the enzyme-added (DMSO (+)) and enzyme-free (DMSO (−)) wells were set at n=8. Test substances (examples of final concentrations: 0.046, 0.14, 0.41, 1.2, 3.7, 11, 33, and 100 μM) at a concentration of 100 times or 0.1 μL of DMSO was dispensed into the plate and 5 μL of SIRT6 enzyme (prepared by Daiichi Sankyo RD Novare Co., Ltd., final concentration: 25 ng/mL) diluted with an assay buffer (10 mM Tris-HCl pH of 8.0, 0.1% BSA, 0.01% Tween 20, 1 mM DTT, 12.5% Glycerol) was added thereto. The enzymatic reaction was started by adding 5 μL of a mixed solution [Lys(Ac)9]-Histone H3 (1-21)-NH2, H3K9 (Ac), biotin-labeled, amide (AnaSpec, AS-64190, final concentration: 2 nM) and β-nicotinamide adenine dinucleotide (Sigma-Aldrich, N8285-15VL, final concentration: 10 μM), and the reaction was performed at room temperature for 30 minutes. 10 μL of a mixed solution of nicotinamide (Sigma-Aldrich, 72340-100G, final concentration: 100 mM) prepared with AlphaLISA Epigenetics Buffer (PerkinElmer, AL008C), AlphaLISA Anti-unmodified Histone H3 Lysine 9/Lysine 27 (H3K9/K27) Acceptor Beads (PerkinElmer, AL138, final concentration: 10 μg/mL), and AlphaScreen Streptavidin Donor beads (PerkinElmer, 6760002, final concentration: 5 μg/mL) was added thereto, the reaction was performed at room temperature for 60 minutes and then stopped, and acetylation was detected. The emission intensity was measured by EnVision (PerkinElmer).
# The relative enzyme activity (%) of the test substance was calculated by the following equation. Relative enzyme activity (%)=[(emission intensity of test substance-added well−emission intensity of DMSO (−) well)/(emission intensity of DMSO (+) well−emission intensity of DMSO (−) well)]×100
# The EC150 (the concentration of the compound showing a relative enzyme activity of 150%) of the test substance was calculated based on Sigmoidal dose-response (variable slope) of GraphPad Prism (GraphPad Software) using the value of the relative enzyme activity (%) at each concentration, and the results are listed in Tables 1-1 to 1-5.
# SIRT6 enzyme, sequence (Q8N6T7 whole entry, species assumed): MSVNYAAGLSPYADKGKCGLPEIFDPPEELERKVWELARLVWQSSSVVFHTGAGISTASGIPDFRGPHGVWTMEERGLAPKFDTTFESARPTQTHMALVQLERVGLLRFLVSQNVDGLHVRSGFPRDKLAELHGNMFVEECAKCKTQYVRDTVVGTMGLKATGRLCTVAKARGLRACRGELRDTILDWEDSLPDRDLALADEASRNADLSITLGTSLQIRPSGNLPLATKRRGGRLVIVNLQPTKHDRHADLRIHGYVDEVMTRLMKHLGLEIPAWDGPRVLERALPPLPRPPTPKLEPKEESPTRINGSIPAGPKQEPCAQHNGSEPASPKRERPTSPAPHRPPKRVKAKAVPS
row,Compound,EC150 (the concentration of the compound showing a relative enzyme activity of 150%) [μm]
1,"C[C@H]1NC(=O)N(c2nc3c(s2)[C@@H]2COC[C@H](C3)N2c2nc(-c3ccc(F)cc3)no2)C1=O [Example 20, (5R)-3-{(4S,8S)-10-[3-(4-fluorophenyl)-1,2,4-oxadiazol-5-yl]-4,7,8,9-tetrahydro-5H-4,8-epiminooxocino[5,4-d][1,3]thiazol-2-yl}-5-methylimidazolidine-2,4-dione]",2.6
2,"CNC(=O)Nc1nc2c(s1)[C@@H]1COC[C@H](C2)N1c1nnc(-c2cccc(C(=O)C3CC3)c2)o1 [Example 21, N-[(4S,8S)-10-{5-[3-(cyclopropanecarbonyl)phenyl]-1,3,4-oxadiazol-2-yl}-4,7,8,9-tetrahydro-5H-4,8-epiminooxocino[5,4-d][1,3]thiazol-2-yl]-N′-methylurea]",1.5
3,"CNC(=O)Nc1nc2c(s1)[C@@H]1COC[C@H](C2)N1c1nnc(-c2cccc(OC(F)F)c2)o1 [Example 22, N-[(4S,8S)-10-{5-[3-(difluoromethoxy)phenyl]-1,3,4-oxadiazol-2-yl}-4,7,8,9-tetrahydro-5H-4,8-epiminooxocino[5,4-d][1,3]thiazol-2-yl]-N′-methylurea]",1.3
4,"O=C(Nc1nc2c(s1)CN(c1nc(C3CCC(F)(F)CC3)no1)CC2)N[C@@H]1CCC[C@H]1O [Example 25, N-{5-[3-(4,4-difluorocyclohexyl)-1,2,4-oxadiazol-5-yl]-4,5,6,7-tetrahydro[1,3]thiazolo[5,4-c]pyridin-2-yl}-N′-[(1R,2R)-2-hydroxycyclopentyl]urea]",0.81
5,"O=C(Nc1nc2c(s1)CN(c1nc(C3CCC(F)(F)CC3)no1)CC2)N[C@H]1CC[C@H](O)CC1 [Example 26, N-{5-[3-(4,4-difluorocyclohexyl)-1,2,4-oxadiazol-5-yl]-4,5,6,7-tetrahydro[1,3]thiazolo[5,4-c]pyridin-2-yl}-N′-[(1r,4r)-4-hydroxycyclohexyl]urea]",0.81
6,"COCCCNC(=O)Nc1nc2c(s1)CN(c1nc(C3CCC(F)(F)CC3)no1)CC2 [Example 27, N-{5-[3-(4,4-difluorocyclohexyl)-1,2,4-oxadiazol-5-yl]-4,5,6,7-tetrahydro[1,3]thiazolo[5,4-c]pyridin-2-yl}-N′-(3-methoxypropyl)urea]",2.1
7,"CC(C)(O)CNC(=O)Nc1nc2c(s1)CN(c1nc(C3CCCC(F)(F)C3)no1)CC2 (stereo not shown) [Example 28, N-{5-[3-(3,3-difluorocyclohexyl)-1,2,4-oxadiazol-5-yl]-4,5,6,7-tetrahydro[1,3]thiazolo[5,4-c]pyridin-2-yl}-N′-(2-hydroxy-2-methylpropyl)urea]",2.1
8,"O=C(NC[C@H]1COCCO1)Nc1nc2c(s1)[C@@H]1COC[C@H](C2)N1c1nc(-c2ccc(F)cc2)no1 [Example 29, N-{[(2S)-1,4-dioxan-2-yl]methyl}-N′-{(4S,8S)-10-[3-(4-fluorophenyl)-1,2,4-oxadiazol-5-yl]-4,7,8,9-tetrahydro-5H-4,8-epiminooxocino[5,4-d][1,3]thiazol-2-yl}urea]",0.69
9,"CS(=O)(=O)N1CC2Cc3nc(NC(=O)NC4CCOCC4)sc3C(C1)N2c1nc(-c2ccc(F)cc2)no1 (stereo not shown) [Example 30, N-{10-[3-(4-fluorophenyl)-1,2,4-oxadiazol-5-yl]-6-(methanesulfonyl)-4,5,6,7,8,9-hexahydro-4,8-epimino[1,3]thiazolo[5,4-d]azocin-2-yl}-N′-oxan-4-ylurea]",0.18
10,"CNC(=O)Nc1nc2c(s1)C1CN(S(C)(=O)=O)CC(C2)N1c1nc(-c2ccc(F)cc2)no1 (stereo not shown) [Example 31, N-{10-[3-(4-fluorophenyl)-1,2,4-oxadiazol-5-yl]-6-(methanesulfonyl)-4,5,6,7,8,9-hexahydro-4,8-epimino[1,3]thiazolo[5,4-d]azocin-2-yl}-N′-methylurea]",2.5
